Like-named read-outs stand apart in the source and are kept apart here.
Assays:
Assay in all cases: biochemical
Parameters in all cases: Eurofins KinaseProfiler full panel at Km ATP, residual kinase activity (%) relative to DMSO
IRAK4(h) = target: T1, IRAK4(h) (Homo sapiens, UniProt Q9NWZ3)
T1 sequence (Q9NWZ3 1-460): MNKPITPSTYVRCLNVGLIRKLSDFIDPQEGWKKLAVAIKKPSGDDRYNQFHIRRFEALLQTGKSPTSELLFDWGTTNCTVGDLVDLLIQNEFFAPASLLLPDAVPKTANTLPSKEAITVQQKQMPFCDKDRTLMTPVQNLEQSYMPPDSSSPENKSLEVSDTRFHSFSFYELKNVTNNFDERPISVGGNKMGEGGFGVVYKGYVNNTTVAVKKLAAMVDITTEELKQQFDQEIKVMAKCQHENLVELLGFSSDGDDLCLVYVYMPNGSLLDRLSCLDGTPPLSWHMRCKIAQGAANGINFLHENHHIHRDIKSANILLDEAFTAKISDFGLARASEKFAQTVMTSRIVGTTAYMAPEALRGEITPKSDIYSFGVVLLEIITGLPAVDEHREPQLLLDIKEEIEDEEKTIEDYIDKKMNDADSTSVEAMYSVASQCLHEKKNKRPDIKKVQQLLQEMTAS
Summary of the method: (§1)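 Compounds screened at 10 µM in radiometric kinase activity assays at Km ATP, reported as remaining kinase activity (%). A KINOMEscan competition-binding screen at 10 µM measured DNA-tagged kinase retained on immobilized active-site ligand by qPCR.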

JAK1(h) = JAK1(h) (Homo sapiens, UniProt P23458)
Summary of the method: as §1

PI3KC2g(h) = target: T2, PI3KC2g(h) (Homo sapiens, UniProt O75747)
T2 construct: gene PIK3C2G
T2 sequence (O75747 1-1486): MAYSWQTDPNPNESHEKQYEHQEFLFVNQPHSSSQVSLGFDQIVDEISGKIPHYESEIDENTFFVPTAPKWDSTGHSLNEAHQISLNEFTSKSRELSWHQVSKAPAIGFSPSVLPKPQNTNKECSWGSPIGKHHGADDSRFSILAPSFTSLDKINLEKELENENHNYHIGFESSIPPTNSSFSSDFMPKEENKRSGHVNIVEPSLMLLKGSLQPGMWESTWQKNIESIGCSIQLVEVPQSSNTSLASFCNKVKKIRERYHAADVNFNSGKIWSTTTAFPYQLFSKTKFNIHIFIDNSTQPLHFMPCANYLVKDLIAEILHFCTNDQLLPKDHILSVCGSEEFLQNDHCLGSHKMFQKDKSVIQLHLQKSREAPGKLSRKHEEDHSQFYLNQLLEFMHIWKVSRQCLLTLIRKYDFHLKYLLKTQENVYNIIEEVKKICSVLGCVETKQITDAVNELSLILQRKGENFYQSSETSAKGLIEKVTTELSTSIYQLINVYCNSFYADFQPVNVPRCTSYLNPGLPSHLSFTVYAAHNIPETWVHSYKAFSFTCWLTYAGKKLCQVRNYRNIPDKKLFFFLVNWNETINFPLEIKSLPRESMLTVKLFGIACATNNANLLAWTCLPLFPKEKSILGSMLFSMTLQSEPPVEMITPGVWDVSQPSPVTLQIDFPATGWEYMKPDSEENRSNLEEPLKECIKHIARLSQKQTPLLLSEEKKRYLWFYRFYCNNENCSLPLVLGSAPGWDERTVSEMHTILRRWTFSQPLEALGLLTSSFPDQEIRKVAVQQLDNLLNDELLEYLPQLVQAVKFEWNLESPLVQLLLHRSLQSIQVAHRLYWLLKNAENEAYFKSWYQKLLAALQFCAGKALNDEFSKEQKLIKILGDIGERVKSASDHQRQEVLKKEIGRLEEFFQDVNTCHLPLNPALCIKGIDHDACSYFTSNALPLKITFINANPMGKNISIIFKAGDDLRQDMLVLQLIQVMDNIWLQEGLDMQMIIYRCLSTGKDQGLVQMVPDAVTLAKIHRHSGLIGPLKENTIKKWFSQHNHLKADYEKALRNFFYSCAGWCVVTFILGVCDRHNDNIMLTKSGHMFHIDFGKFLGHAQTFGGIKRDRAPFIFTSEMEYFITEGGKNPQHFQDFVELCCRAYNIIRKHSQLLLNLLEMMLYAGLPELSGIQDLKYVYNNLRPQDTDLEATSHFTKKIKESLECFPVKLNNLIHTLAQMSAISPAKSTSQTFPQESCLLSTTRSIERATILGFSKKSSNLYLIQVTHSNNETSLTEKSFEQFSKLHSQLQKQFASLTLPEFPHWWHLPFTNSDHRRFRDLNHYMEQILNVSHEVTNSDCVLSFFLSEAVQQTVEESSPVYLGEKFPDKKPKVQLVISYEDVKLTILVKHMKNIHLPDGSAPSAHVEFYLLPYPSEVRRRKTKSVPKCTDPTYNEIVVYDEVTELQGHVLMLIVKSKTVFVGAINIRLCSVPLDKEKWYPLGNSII
Summary of the method: as §1

[1] = read-out: Residual activity (%) 5ay
[2] = read-out: Residual activity (%) Spautin-1 5aa
[3] = read-out: Residual activity (%) 5at
[4] = read-out: Residual activity (%) 5as

Sequence of JAK1(h) (P23458 whole entry): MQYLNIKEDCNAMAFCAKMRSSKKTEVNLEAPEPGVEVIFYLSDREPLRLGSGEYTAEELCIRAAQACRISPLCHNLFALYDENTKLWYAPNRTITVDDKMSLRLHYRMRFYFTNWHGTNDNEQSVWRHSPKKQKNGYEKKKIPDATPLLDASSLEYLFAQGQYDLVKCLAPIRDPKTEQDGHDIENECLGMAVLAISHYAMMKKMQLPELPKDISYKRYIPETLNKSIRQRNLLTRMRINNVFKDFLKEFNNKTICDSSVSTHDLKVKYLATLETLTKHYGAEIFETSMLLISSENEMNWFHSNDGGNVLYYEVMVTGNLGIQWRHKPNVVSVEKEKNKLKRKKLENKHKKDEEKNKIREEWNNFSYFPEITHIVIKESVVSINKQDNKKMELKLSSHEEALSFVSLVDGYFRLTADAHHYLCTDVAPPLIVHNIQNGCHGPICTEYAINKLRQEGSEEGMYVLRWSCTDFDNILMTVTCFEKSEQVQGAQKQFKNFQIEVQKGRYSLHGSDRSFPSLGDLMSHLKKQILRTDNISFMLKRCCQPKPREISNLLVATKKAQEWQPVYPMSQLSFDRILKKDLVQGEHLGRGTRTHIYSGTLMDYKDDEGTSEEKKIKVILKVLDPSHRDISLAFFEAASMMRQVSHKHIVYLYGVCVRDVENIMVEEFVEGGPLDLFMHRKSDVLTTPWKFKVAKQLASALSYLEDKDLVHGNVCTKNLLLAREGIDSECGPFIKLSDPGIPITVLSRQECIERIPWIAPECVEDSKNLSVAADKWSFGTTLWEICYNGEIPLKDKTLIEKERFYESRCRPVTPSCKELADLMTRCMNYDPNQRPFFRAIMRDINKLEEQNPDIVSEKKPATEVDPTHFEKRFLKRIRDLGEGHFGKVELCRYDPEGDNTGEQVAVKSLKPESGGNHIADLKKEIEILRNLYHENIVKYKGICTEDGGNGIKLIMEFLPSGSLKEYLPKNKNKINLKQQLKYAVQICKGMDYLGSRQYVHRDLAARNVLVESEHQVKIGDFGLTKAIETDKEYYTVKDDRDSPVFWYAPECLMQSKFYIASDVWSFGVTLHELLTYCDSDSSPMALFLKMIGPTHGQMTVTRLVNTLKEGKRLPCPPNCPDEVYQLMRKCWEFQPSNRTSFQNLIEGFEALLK

COc1ccc2ncnc(Nc3cccc(F)c3)c2c1 [5ay, N-(3-Fluorophenyl)-6-Methoxy-4-Quinazolinamine]
remaining activity at 10 µM (IRAK4(h); [1]): 60%
remaining activity at 10 µM (JAK1(h); [1]): 90%
remaining activity at 10 µM (PI3KC2g(h); [1]): 40%

Fc1ccc(CNc2ncnc3ccc(F)cc23)cc1 [5aa, 6-Fluoro-N-(4-fluorobenzyl)-4-Quinazolinamine]
remaining activity at 10 µM (IRAK4(h); [2]): 96%
remaining activity at 10 µM (JAK1(h); [2]): 117%
remaining activity at 10 µM (PI3KC2g(h); [2]): 70%

Fc1ccc2ncnc(NCCc3ccc(Cl)cc3)c2c1 [5at, N-[2-(4-Chlorophenyl)Ethyl]-6-Fluoro-4-Quinazolinamine]
remaining activity at 10 µM (IRAK4(h); [3]): 103%
remaining activity at 10 µM (JAK1(h); [3]): 99%
remaining activity at 10 µM (PI3KC2g(h); [3]): 34%

Fc1ccc(CCNc2ncnc3ccc(F)cc23)cc1 [5as, 6-Fluoro-N-[2-(4-Fluorophenyl)Ethyl]-4-Quinazolinamine]
remaining activity at 10 µM (IRAK4(h); [4]): 92%
remaining activity at 10 µM (JAK1(h); [4]): 93%
remaining activity at 10 µM (PI3KC2g(h); [4]): 57%

Source: article PMC7827406, “Structure–Activity Relationship (SAR) Study of Spautin-1 to Entail the Discovery of Novel NEK4 Inhibitors” (International Journal of Molecular Sciences, 2021)
